± gives the expanded uncertainty stated by the source.
Conditions: Liquid, Hot wire method

F/C=C/C(F)(F)F [trans-1,3,3,3-tetrafluoropropene]
Conditions	thermal conductivity [W/m/K]
203.15 K	0.1101 ± 0.00064
213.15 K	0.1064 ± 0.00063
223.15 K	0.1024 ± 0.0006
233.15 K	0.0984 ± 0.0006

Conditions	thermal conductivity [W/m/K]
203.18 K, 711 kPa	0.1106 ± 0.0012
203.18 K, 5522 kPa	0.1124 ± 0.0012
203.18 K, 10459 kPa	0.114 ± 0.0012
203.18 K, 15332 kPa	0.1155 ± 0.0013
203.18 K, 20782 kPa	0.1173 ± 0.0013
203.28 K, 739 kPa	0.1103 ± 0.0012
203.28 K, 5531 kPa	0.112 ± 0.0012
203.28 K, 10473 kPa	0.1137 ± 0.0012
203.29 K, 15354 kPa	0.1152 ± 0.0013
203.29 K, 20780 kPa	0.1169 ± 0.0013
203.54 K, 5526 kPa	0.1122 ± 0.0012
203.54 K, 10469 kPa	0.1137 ± 0.0012
203.55 K, 747 kPa	0.1104 ± 0.0012
203.55 K, 15371 kPa	0.1153 ± 0.0013
203.56 K, 20781 kPa	0.1169 ± 0.0013
203.67 K, 5527 kPa	0.1118 ± 0.0012
203.67 K, 10483 kPa	0.1135 ± 0.0012
203.67 K, 15392 kPa	0.1149 ± 0.0012
203.67 K, 20820 kPa	0.1167 ± 0.0013
203.68 K, 729 kPa	0.11 ± 0.0012
203.94 K, 20822 kPa	0.1168 ± 0.0013
203.95 K, 15357 kPa	0.1149 ± 0.0012
203.96 K, 5536 kPa	0.1119 ± 0.0012
203.96 K, 10470 kPa	0.1136 ± 0.0012
203.97 K, 733 kPa	0.1102 ± 0.0012
204.1 K, 15343 kPa	0.1146 ± 0.0012
204.1 K, 20832 kPa	0.1164 ± 0.0013
204.11 K, 5538 kPa	0.1115 ± 0.0012
204.11 K, 10474 kPa	0.1133 ± 0.0012
204.12 K, 727 kPa	0.1098 ± 0.0012
204.38 K, 20839 kPa	0.1166 ± 0.0013
204.39 K, 15379 kPa	0.1146 ± 0.0012
204.4 K, 10465 kPa	0.1133 ± 0.0012
204.41 K, 5532 kPa	0.1118 ± 0.0012
204.42 K, 727 kPa	0.11 ± 0.0012
204.56 K, 15381 kPa	0.1145 ± 0.0012
204.56 K, 20849 kPa	0.1163 ± 0.0013
204.57 K, 10473 kPa	0.113 ± 0.0012
204.59 K, 5544 kPa	0.1114 ± 0.0012
204.62 K, 736 kPa	0.1094 ± 0.0012
204.85 K, 20860 kPa	0.1164 ± 0.0013
204.87 K, 15409 kPa	0.1147 ± 0.0012
204.88 K, 10437 kPa	0.1131 ± 0.0012
204.9 K, 5524 kPa	0.1115 ± 0.0012
204.92 K, 744 kPa	0.1095 ± 0.0012
205.05 K, 20874 kPa	0.116 ± 0.0013
205.06 K, 15407 kPa	0.1143 ± 0.0012
205.09 K, 10456 kPa	0.1127 ± 0.0012
205.1 K, 5515 kPa	0.1111 ± 0.0012
205.13 K, 719 kPa	0.1088 ± 0.0012
221.66 K, 461 kPa	0.1031 ± 0.0011
221.67 K, 5469 kPa	0.1047 ± 0.0011
221.74 K, 21449 kPa	0.1111 ± 0.0012
221.76 K, 463 kPa	0.1036 ± 0.0011
221.76 K, 5431 kPa	0.1048 ± 0.0011
221.76 K, 10410 kPa	0.1068 ± 0.0012
221.76 K, 15721 kPa	0.1089 ± 0.0012
221.84 K, 21448 kPa	0.1108 ± 0.0012
221.86 K, 15726 kPa	0.1087 ± 0.0012
221.88 K, 10573 kPa	0.1069 ± 0.0012
222.06 K, 464 kPa	0.1022 ± 0.0011
222.06 K, 10416 kPa	0.1071 ± 0.0012
222.08 K, 5404 kPa	0.1049 ± 0.0011
222.12 K, 21441 kPa	0.1109 ± 0.0012
222.15 K, 15723 kPa	0.1088 ± 0.0012
222.18 K, 10370 kPa	0.1067 ± 0.0012
222.19 K, 465 kPa	0.103 ± 0.0011
222.19 K, 5436 kPa	0.1046 ± 0.0011
222.24 K, 21442 kPa	0.1106 ± 0.0012
222.27 K, 15726 kPa	0.1085 ± 0.0012
222.3 K, 10660 kPa	0.1066 ± 0.0011
222.49 K, 10407 kPa	0.1072 ± 0.0012
222.5 K, 470 kPa	0.1023 ± 0.0011
222.5 K, 5467 kPa	0.105 ± 0.0011
222.5 K, 10293 kPa	0.1066 ± 0.0011
222.54 K, 21423 kPa	0.1106 ± 0.0012
222.57 K, 15731 kPa	0.1085 ± 0.0012
222.64 K, 10411 kPa	0.1065 ± 0.0011
222.65 K, 468 kPa	0.1027 ± 0.0011
222.65 K, 5467 kPa	0.1046 ± 0.0011
222.68 K, 21432 kPa	0.1103 ± 0.0012
222.72 K, 15730 kPa	0.1082 ± 0.0012
222.97 K, 10413 kPa	0.1065 ± 0.0012
222.99 K, 5478 kPa	0.1038 ± 0.0011
223 K, 470 kPa	0.1026 ± 0.0011
223 K, 21446 kPa	0.1104 ± 0.0012
223.04 K, 15727 kPa	0.1083 ± 0.0012
223.15 K, 10394 kPa	0.1061 ± 0.0012
223.16 K, 5476 kPa	0.1042 ± 0.0011
223.18 K, 469 kPa	0.1021 ± 0.0011
223.18 K, 21443 kPa	0.11 ± 0.0012
223.22 K, 15728 kPa	0.108 ± 0.0012
223.49 K, 10439 kPa	0.1055 ± 0.0011
223.5 K, 21421 kPa	0.1101 ± 0.0012
223.52 K, 5475 kPa	0.105 ± 0.0011
223.55 K, 15715 kPa	0.1081 ± 0.0012
223.7 K, 10408 kPa	0.1058 ± 0.0011
223.71 K, 21432 kPa	0.1098 ± 0.0012
223.73 K, 5485 kPa	0.104 ± 0.0011
223.75 K, 474 kPa	0.1022 ± 0.0011
223.76 K, 15729 kPa	0.1077 ± 0.0012
241.49 K, 10379 kPa	0.09991 ± 0.0011
241.51 K, 15379 kPa	0.1018 ± 0.0011
241.52 K, 20702 kPa	0.1042 ± 0.0011
241.53 K, 5318 kPa	0.09771 ± 0.0011
241.56 K, 614 kPa	0.09561 ± 0.001
241.59 K, 10369 kPa	0.0996 ± 0.0011
241.6 K, 15368 kPa	0.1014 ± 0.0011
241.61 K, 20709 kPa	0.1038 ± 0.0011
241.62 K, 5325 kPa	0.09743 ± 0.0011

Reference: the NIST ThermoML archive (doi:10.1021/je200811n)
